Test system: 885724-159-R-J1-PDC complex spheroid viability
Test: Anticancer human tumor 885724-159-R-J1-PDC patient-derived pancreatic adenocarcinoma cell line growth inhibition [POLQ]
Conditions: for IC50: curve of first compound; for viability, T/C: stronger effect = lower value
Summary of the method: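 Patient-derived tumour cells were co-cultured with HUVEC and mesenchymal stem cells as multicellular spheroids at 37 °C. They were treated with POLQ inhibitors (novobiocin, ART-558, RP6685) alone or combined with other agents. Top concentrations were at or near clinical Cmax (otherwise 10 microM; SN-38 at 1 microM), decreasing in half-log steps.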
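Further: spheroids exposed to compounds for 7 days.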

SMILES: CC1COCCN1c1cc(C2(O)CC3CCC(C2)O3)c2cnn(-c3ccn[nH]3)c2n1 (configuration not stated) + COC1C(OC(N)=O)C(O)C(Oc2ccc3c(O)c(NC(=O)c4ccc(O)c(CC=C(C)C)c4)c(=O)oc3c2C)OC1(C)C
- IC50 (second compound 0.0316 µM): 0.139 µM
- IC50 (second compound 0.1 µM): 0.15 µM
- IC50 (second compound 0.316 µM): 0.0982 µM
- IC50 (second compound 1 µM): 0.139 µM
- IC50 (second compound 3.16 µM): 0.096 µM
- IC50 (second compound 10 µM): 0.102 µM
- viability, T/C (second compound 0.0316 µM, first compound 0.0316 µM): 74.7%
- viability, T/C (second compound 0.0316 µM, first compound 0.1 µM): 49.8%
- viability, T/C (second compound 0.0316 µM, first compound 0.316 µM): 38.8%
- viability, T/C (second compound 0.0316 µM, first compound 1 µM): 41.8%
- viability, T/C (second compound 0.0316 µM, first compound 3.16 µM): 31.5%
- viability, T/C (second compound 0.0316 µM, first compound 10 µM): 23.2%
- viability, T/C (second compound 0.1 µM, first compound 0.0316 µM): 73.3%
- viability, T/C (second compound 0.1 µM, first compound 0.1 µM): 51.4%
- viability, T/C (second compound 0.1 µM, first compound 0.316 µM): 40%
- viability, T/C (second compound 0.1 µM, first compound 1 µM): 41.4%
- viability, T/C (second compound 0.1 µM, first compound 3.16 µM): 31.9%
- viability, T/C (second compound 0.1 µM, first compound 10 µM): 24.7%
- viability, T/C (second compound 0.316 µM, first compound 0.0316 µM): 63.1%
- viability, T/C (second compound 0.316 µM, first compound 0.1 µM): 50.4%
- viability, T/C (second compound 0.316 µM, first compound 0.316 µM): 39%
- viability, T/C (second compound 0.316 µM, first compound 1 µM): 34.8%
- viability, T/C (second compound 0.316 µM, first compound 3.16 µM): 32.5%
- viability, T/C (second compound 0.316 µM, first compound 10 µM): 28.6%
- viability, T/C (second compound 1 µM, first compound 0.0316 µM): 75.1%
- viability, T/C (second compound 1 µM, first compound 0.1 µM): 52%
- viability, T/C (second compound 1 µM, first compound 0.316 µM): 39.7%
- viability, T/C (second compound 1 µM, first compound 1 µM): 38.1%
- viability, T/C (second compound 1 µM, first compound 3.16 µM): 31.2%
- viability, T/C (second compound 1 µM, first compound 10 µM): 25.4%
- viability, T/C (second compound 3.16 µM, first compound 0.0316 µM): 68.1%
- viability, T/C (second compound 3.16 µM, first compound 0.1 µM): 44.8%
- viability, T/C (second compound 3.16 µM, first compound 0.316 µM): 42.5%
- viability, T/C (second compound 3.16 µM, first compound 1 µM): 35.8%
- viability, T/C (second compound 3.16 µM, first compound 3.16 µM): 31.8%
- viability, T/C (second compound 3.16 µM, first compound 10 µM): 26.4%
- viability, T/C (second compound 10 µM, first compound 0.0316 µM): 61.1%
- viability, T/C (second compound 10 µM, first compound 0.1 µM): 50.5%
- viability, T/C (second compound 10 µM, first compound 0.316 µM): 40.8%
- viability, T/C (second compound 10 µM, first compound 1 µM): 34.5%
- viability, T/C (second compound 10 µM, first compound 3.16 µM): 34.9%
- viability, T/C (second compound 10 µM, first compound 10 µM): 26.3%

From PubChem BioAssay AID1963832 (Molecular Pharmacology Branch, DTP, NCI, 2024)
